The target of this assay is T1, human oxytocin receptor (Homo sapiens, UniProt P30559).
T1 construct: host or cells: CHO cells (pcDNA3.1 vector)
T1 sequence (P30559 1-389): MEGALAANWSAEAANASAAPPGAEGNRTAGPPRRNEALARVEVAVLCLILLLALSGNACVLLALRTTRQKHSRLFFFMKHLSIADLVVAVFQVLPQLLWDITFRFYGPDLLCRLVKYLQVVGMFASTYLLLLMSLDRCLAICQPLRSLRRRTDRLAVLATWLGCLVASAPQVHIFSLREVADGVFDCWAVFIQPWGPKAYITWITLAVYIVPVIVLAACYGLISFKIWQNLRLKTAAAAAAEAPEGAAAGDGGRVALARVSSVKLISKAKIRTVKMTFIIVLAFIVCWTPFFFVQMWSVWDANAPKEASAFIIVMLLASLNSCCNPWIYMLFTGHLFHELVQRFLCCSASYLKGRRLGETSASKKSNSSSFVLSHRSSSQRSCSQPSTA
Briefly: Oxytocin binding in Chinese Hamster Ovary cell membranes expressing human oxytocin receptors. Conditions: 100 nM, CHO cell membranes, [3H]oxytocin, values without parentheses, read-out: OT % inhibition @ 100% nM.
Regarding `COc1cccc(-c2cc(OC)c(C(=O)N3Cc4ccc(C(=O)N5CCN(CCN(C)C)CC5)n4Cc4ccccc43)cc2Cl)c1` [Example 202, {10-[(6-Chloro-3,3′-dimethoxy[1,1′-biphenyl]-4-yl)carbonyl]-10,11-dihydro-5H-pyrrolo[2,1-c][1,4]benzodiazepin-3-yl}{4-[2-(dimethylamino)ethyl]-1-piperazinyl}methanone], the inhibition at 0.1 µM was determined as 73%.

As for `COc1cccc(-c2cc(OC)c(C(=O)N3Cc4ccc(C(=O)NCCC5CCCN5C)n4Cc4ccccc43)cc2Cl)c1` (centres unmarked) [Example 169, 10-[(6-Chloro-3,3′-dimethoxy[1,1′-biphenyl]-4-yl)carbonyl]-N-[2-(1-methyl-2-pyrrolidinyl)ethyl]-10,11-dihydro-5H-pyrrolo[2,1-c][1,4]benzodiazepine-3-carboxamide], the inhibition at 0.1 µM turned out to be 36%. Then `Cc1ccccc1-c1ccc(C(=O)N2Cc3ccc(C(=O)N4CCN(CCN5CCOCC5)CC4)n3Cc3ccccc32)cc1C` [Example 218, {10-[(2,2′-Dimethyl[1,1′-biphenyl]-4-yl)carbonyl]-10,11-dihydro-5H-pyrrolo[2,1-c][1,4]benzodiazepin-3-yl}{4-[2-(4-morpholinyl)ethyl]-1-piperazinyl}methanone], with 98%; and `Cc1cc(C(=O)N2Cc3ccc(C(=O)NCCC4CCCN4C)n3Cc3ccccc32)ccc1-c1ccccc1C(F)(F)F` (centres unmarked) [Example 174, N-[2-(1-Methyl-2-pyrrolidinyl)ethyl]-10-{[2-methyl-2′-(trifluoromethyl)[1,1′-biphenyl]-4-yl]carbonyl}-10,11-dihydro-5H-pyrrolo[2,1-c][1,4]benzodiazepine-3-carboxamide], with 59%; and `COc1cc(C(=O)N2Cc3ccc(C(=O)NCCC4CCCN4C)n3Cc3ccccc32)ccc1-c1ccccc1C` (centres unmarked) [Example 167, 10-[(2-Methoxy-2′-methyl[1,1′-biphenyl]-4-yl)carbonyl]-N-[2-(1-methyl-2-pyrrolidinyl)ethyl]-10,11-dihydro-5H-pyrrolo[2,1-c][1,4]benzodiazepine-3-carboxamide], with 60%. On to `COc1cccc(-c2ccc(C(=O)N3Cc4ccc(C(=O)N(C)C5CCN(C)CC5)n4Cc4ccccc43)cc2C)c1` [Example 176, 10-[(3′-Methoxy-2-methyl[1,1′-biphenyl]-4-yl)carbonyl]-N-methyl-N-(1-methyl-4-piperidinyl)-10,11-dihydro-5H-pyrrolo[2,1-c][1,4]benzodiazepine-3-carboxamide], for which the inhibition at 0.1 µM amounted to 88%. Then `Cc1cc(C(=O)N2Cc3ccc(C(=O)N(C)C4CCN(C)C4)n3Cc3ccccc32)ccc1-c1ccccc1C(F)(F)F` (centres unmarked) [Example 194, N-Methyl-N-(1-methyl-3-pyrrolidinyl)-10-{[2-methyl-2′-(trifluoromethyl)[1,1′-biphenyl]-4-yl]carbonyl}-10,11-dihydro-5H-pyrrolo[2,1-c][1,4]benzodiazepine-3-carboxamide], with 96%; and `Cc1cc(C(=O)N2Cc3ccc(C(=O)NCCN4CCCCC4)n3Cc3ccccc32)ccc1-c1ccccc1C(F)(F)F` [Example 161, 10-{[2-Methyl-2′-(trifluoromethyl)[1,1′-biphenyl]-4-yl]carbonyl}-N-[2-(1-piperidinyl)ethyl]-10,11-dihydro-5H-pyrrolo[2,1-c][1,4]benzodiazepine-3-carboxamide], with 53%; and `O=C(c1ccc2n1Cc1ccccc1N(C(=O)c1ccc(-c3cccc4ccccc34)cc1Cl)C2)N1CCN(CCN2CCOCC2)CC1` [Example 215, {10-[2-Chloro-4-(1-naphthyl)benzoyl]-10,11-dihydro-5H-pyrrolo[2,1-c][1,4]benzodiazepin-3-yl}{4-[2-(4-morpholinyl)ethyl]-1-piperazinyl}methanone], with 26%. For `COc1ccccc1-c1ccc(C(=O)N2Cc3ccc(C(=O)N4CCN(C(C)C)CC4)n3Cc3ccccc32)cc1` [Example 234, (4-Isopropyl-1-piperazinyl){10-[(2′-methoxy[1,1′-biphenyl]-4-yl)carbonyl]-10,11-dihydro-5H-pyrrolo[2,1-c][1,4]benzodiazepin-3-yl}methanone], the inhibition at 0.1 µM turned out to be 82%. Then `COc1cc(C(=O)N2Cc3ccc(C(=O)N4CCN(CCN(C)C)CC4)n3Cc3ccccc32)ccc1-c1ccccc1C` [Example 201, {4-[2-(Dimethylamino)ethyl]-1-piperazinyl}{10-[(2-methoxy-2′-methyl[1,1′-biphenyl]-4-yl)carbonyl]-10,11-dihydro-5H-pyrrolo[2,1-c][1,4]benzodiazepin-3-yl}methanone], with 86%; and `COc1cc(-c2ccccc2C)c(Cl)cc1C(=O)N1Cc2ccc(C(=O)N(C)C3CCN(C)CC3)n2Cc2ccccc21` [Example 180, 10-[(6-Chloro-3-methoxy-2′-methyl[1,1′-biphenyl]-4-yl)carbonyl]-N-methyl-N-(1-methyl-4-piperidinyl)-10,11-dihydro-5H-pyrrolo[2,1-c][1,4]benzodiazepine-3-carboxamide], with 98%; and `Cc1ccccc1-c1ccc(C(=O)N2Cc3ccc(C(=O)N(C)C4CCN(C)C4)n3Cc3ccccc32)cc1` (centres unmarked) [Example 188, N-Methyl-10-[(2′-methyl[1,1′-biphenyl]-4-yl)carbonyl]-N-(1-methyl-3-pyrrolidinyl)-10,11-dihydro-5H-pyrrolo[2,1-c][1,4]benzodiazepine-3-carboxamide], with 96%.

`COc1cc(C(=O)N2Cc3ccc(C(=O)NCCC4CCCN4C)n3Cc3ccccc32)ccc1-c1cccc2ccccc12` (centres unmarked) [Example 170, 10-[3-Methoxy-4-(1-naphthyl)benzoyl]-N-[2-(1-methyl-2-pyrrolidinyl)ethyl]-10,11-dihydro-5H-pyrrolo[2,1-c][1,4]benzodiazepine-3-carboxamide]: the inhibition at 0.1 µM was 47%.

Regarding `C=CCN1CCN(C(=O)c2ccc3n2Cc2ccccc2N(C(=O)c2ccc(-c4ccccc4C(F)(F)F)c(C)c2)C3)CC1` [Example 230, (4-Allyl-1-piperazinyl)(10-{[2-methyl-2′-(trifluoromethyl)[1,1′-biphenyl]-4-yl]carbonyl}-10,11-dihydro-5H-pyrrolo[2,1-c][1,4]benzodiazepin-3-yl)methanone], the inhibition at 0.1 µM amounted to 67%. Then `COc1cc(C(=O)N2Cc3ccc(C(=O)N4CCN(C(C)C)CC4)n3Cc3ccccc32)ccc1-c1ccccc1C` [Example 237, (4-isopropyl-1-piperazinyl){10-[(2-methoxy-2′-methyl[1,1′-biphenyl]-4-yl)carbonyl]-10,11-dihydro-5H-pyrrolo[2,1-c][1,4]benzodiazepin-3-yl}methanone], with 79%. Then `COc1ccccc1-c1ccc(C(=O)N2Cc3ccc(C(=O)N4CCN(C(C)C)CC4)n3Cc3ccccc32)cc1OC` [Example 241, {10-[(2,2′-Dimethoxy[1,1-biphenyl]4-yl)carbonyl]-10,11-dihydro-5H-pyrrolo[2,1-c][1,4]benzodiazepin-3-yl}(4-isopropyl-1-piperazinyl)methanone], with 51%. To `COc1cc(C(=O)N2Cc3ccc(C(=O)N4CCN(CCN5CCOCC5)CC4)n3Cc3ccccc32)ccc1-c1ccccc1C` [Example 210, {10-[(2-Methoxy-2′-methyl[1,1′-biphenyl]-4-yl)carbonyl]-10,11-dihydro-5H-pyrrolo[2,1-c][1,4]benzodiazepin-3-yl}{4-[2-(4-morpholinyl)ethyl]-1-piperazinyl}methanone] belongs 82%; to `Cc1cc(C(=O)N2Cc3ccc(C(=O)N4CCN(C(=O)OC(C)(C)C)CC4)n3Cc3ccccc32)ccc1-c1ccccc1C(F)(F)F` [Example 6, 4-[[10,11-Dihydro-10-[[2-methyl-2′-trifluoromethyl[1,1′-biphenyl]-4-yl]carbonyl]-5H-pyrrolo[2,1-c][1,4]benzodiazepin-3-yl]carbonyl]-1-piperazine-carboxylic acid, tert-butyl ester], 56%. Consider `COc1cccc(-c2ccc(C(=O)N3Cc4ccc(C(=O)N5CCN(C(C)C)CC5)n4Cc4ccccc43)cc2C)c1` [Example 235, (4-Isopropyl-1-piperazinyl){10-[(3′-methoxy-2-methyl[1,1′-biphenyl]-4-yl)carbonyl]-10,11-dihydro-5H-pyrrolo[2,1-c][1,4]benzodiazepin-3-yl}methanone], for which the inhibition at 0.1 µM came out at 64%. For `CN(C)CCN1CCN(C(=O)c2ccc3n2Cc2ccccc2N(C(=O)c2ccc(-c4cccc5ccccc45)cc2Cl)C3)CC1` [Example 205, {10-[2-Chloro-4-(1-naphthyl)benzoyl]-10,11-dihydro-5H-pyrrolo[2,1-c][1,4]benzodiazepin-3-yl}{4-[2-(dimethylamino)ethyl]-1-piperazinyl}methanone], the inhibition at 0.1 µM was 24%.

Take `COc1ccccc1-c1ccc(C(=O)N2Cc3ccc(C(=O)N(C)C4CCN(C)C4)n3Cc3ccccc32)cc1` (centres unmarked) [Example 187, 10-[(2′-Methoxy[1,1′-biphenyl]-4-yl)carbonyl]-N-methyl-N-(1-methyl-3-pyrrolidinyl)-10,11-dihydro-5H-pyrrolo[2,1-c][1,4]benzodiazepine-3-carboxamide]: the inhibition at 0.1 µM is 100%.

Consider `COc1cc(-c2ccccc2C)c(Cl)cc1C(=O)N1Cc2ccc(C(=O)N3CCN(C(C)C)CC3)n2Cc2ccccc21` [Example 238, {10-[(6-Chloro-3-methoxy-2′-methyl[1,1′-biphenyl]-4-yl)carbonyl]-10,11-dihydro-5H -pyrrolo[2,1-c][1,4]benzodiazepin-3-yl}(4-isopropyl-1-piperazinyl)methanone], for which the inhibition at 0.1 µM was 79%.

One may read the inhibition as the percentage by which the read-out fell short of the control.

Values taken from patent publication US7109193B2, “Tricyclic diazepines tocolytic oxytocin receptor antagonists” (Wyeth, priority 2001, dated 2006).
